According to paper PMC4374931 (PLoS ONE, 2015):
Where a name gives a salt, the structure may show the parent alone. Read-outs that look alike come from different tables or passages of the source.

Assays:
[1] = molecular target: androgen receptor; parameters: method as in Sedlak et al.; conditions: published data; ref Sedlak et al.; cited from earlier work
[2] = molecular target: T1, human androgen receptor (Homo sapiens, UniProt P10275); experiment: Gene reporter assay in AIZ-AR cells, agonist mode (luciferase); format: cell-based; conditions: for effect on luciferase activity in agonist mode: 24 h
T1 sequence (P10275 whole entry): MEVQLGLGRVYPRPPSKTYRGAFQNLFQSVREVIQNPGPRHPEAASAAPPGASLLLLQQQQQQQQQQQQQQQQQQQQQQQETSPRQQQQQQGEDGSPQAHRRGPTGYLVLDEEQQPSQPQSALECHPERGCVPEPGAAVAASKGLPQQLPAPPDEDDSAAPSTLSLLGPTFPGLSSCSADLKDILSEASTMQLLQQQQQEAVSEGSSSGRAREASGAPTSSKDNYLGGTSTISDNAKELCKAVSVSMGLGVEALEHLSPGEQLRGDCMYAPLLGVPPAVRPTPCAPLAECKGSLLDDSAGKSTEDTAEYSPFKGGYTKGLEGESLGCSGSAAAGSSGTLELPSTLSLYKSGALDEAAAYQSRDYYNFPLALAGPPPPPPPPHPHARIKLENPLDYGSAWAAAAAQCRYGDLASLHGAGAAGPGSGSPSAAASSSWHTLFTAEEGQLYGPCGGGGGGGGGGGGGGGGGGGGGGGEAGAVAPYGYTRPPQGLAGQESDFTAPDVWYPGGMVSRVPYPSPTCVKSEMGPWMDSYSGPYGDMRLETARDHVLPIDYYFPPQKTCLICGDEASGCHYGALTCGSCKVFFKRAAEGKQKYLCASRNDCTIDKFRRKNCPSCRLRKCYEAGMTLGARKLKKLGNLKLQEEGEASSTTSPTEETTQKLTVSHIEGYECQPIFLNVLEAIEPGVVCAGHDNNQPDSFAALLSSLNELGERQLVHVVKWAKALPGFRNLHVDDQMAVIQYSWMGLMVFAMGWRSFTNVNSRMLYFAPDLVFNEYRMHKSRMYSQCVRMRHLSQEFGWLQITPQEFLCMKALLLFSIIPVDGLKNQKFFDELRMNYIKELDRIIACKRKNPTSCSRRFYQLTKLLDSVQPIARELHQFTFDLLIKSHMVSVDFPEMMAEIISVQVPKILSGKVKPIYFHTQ
Experimental: (§1) AIZ-AR cells were seeded in 96-well plates at density 5x10^4 cells per well. […] After the treatments, cells were lysed and luciferase activity was measured in 96-well plate format using Tecan Infinite M2000 plate luminometer.
(§2) Dose-response analyses assays were performed in two different experimental layouts. […] Where appropriate, IC50 (half maximal inhibitory concentration) values were calculated.

[3] = in vitro; format: cell-based; conditions: human
Experimental: (§3) AIZ-AR cells were seeded in 96-well plates at density 5x10^4 cells per well. […] Following the incubation, MTT assay was measured spectrophotometrically at 540 nm using Tecan Infinite M2000 plate luminometer.

[4] = molecular target: T1, human androgen receptor; experiment: Gene reporter assay in AIZ-AR cells, antagonist mode with testosterone (10 nM); format: cell-based
Experimental: as §1, §2

[5] = molecular target: androgen receptor; parameters: method as in Wilkinson et al.; conditions: published data; ref Wilkinson et al.; cited from earlier work
[6] = molecular target: T1, human androgen receptor; experiment: Gene reporter assay in AIZ-AR cells, antagonist mode with DHT (100 nM); format: cell-based; conditions: antagonist mode, 24 h
Experimental: as §1, §2

[7] = system: AIZ-AR cells; experiment: in vitro; format: cell-based; conditions: 24 h, MTT
Experimental: as §3

[8] = log c -5, 24 h, MTT, read-out: % of viability
[9] = log c -6, 24 h, MTT, read-out: % of viability
[10] = log c -7, 24 h, MTT, read-out: % of viability
[11] = log c -8, 24 h, MTT, read-out: % of viability
[12] = log c -9, 24 h, MTT, read-out: % of viability
[13] = log c -10, 24 h, MTT, read-out: % of viability

| Compound | viability at 24 h, 0.1 nM [3] | viability at 24 h, 1 nM [3] | viability at 24 h, 10 nM [3] | viability at 24 h, 100 nM [3] | viability at 24 h, 1 μM [3] | viability at 24 h, 10 μM [3] | other results |
| --- | --- | --- | --- | --- | --- | --- | --- |
| CC/C(=C(\c1ccc(O)cc1)c1ccc(OCCN(C)C)cc1)c1ccccc1 [4-hydroxytamoxifen] | 100% | 101.8 ± 1% | 100 ± 5.4% | 104 ± 4.4% | 106 ± 3.8% | 9.2 ± 7.7% | Literature Log EC50 [1]: > -5.00; Log EC50 ([2]; Clone 8, 24 h): > -5.00; Log EC50 ([2]; Clone 14, 24 h): > -5.00; Log IC50 (Testosterone 10 nM) ([4]; Clone 8, 24 h): > -5.00; Log IC50 (Testosterone 10 nM) ([4]; Clone 14, 24 h): > -5.00; Literature Log EC50 [5]: > -5.00; Log IC50 (DHT 100nM) ([6]; Clone 8): > -5.00; Log IC50 (DHT 100nM) ([6]; Clone 14): > -5.00 |
| C[C@]12CCC(=O)C[C@@H]1CC[C@@H]1[C@@H]2CC[C@]2(C)[C@@H](O)CC[C@@H]12 [5α-dihydrotestosterone] | – | – | – | – | – | – | viability at 24 h, 10 μM [3, 8]: 104 ± 2%; viability at 24 h, 1 μM [3, 9]: 108 ± 2.6%; viability at 24 h, 100 nM [3, 10]: 114 ± 5.7%; viability at 24 h, 10 nM [3, 11]: 109 ± 2.1%; viability at 24 h, 1 nM [3, 12]: 108 ± 4.6%; viability at 24 h, 0.1 nM [3, 13]: 100% |
| CC(=O)[C@H]1CC[C@H]2[C@@H]3CCC4=CC(=O)CC[C@]4(C)[C@H]3CC[C@]12C [17α-progesterone] | – | – | – | – | – | – | % of viability ([7]; log c -5): 92.0 ± 3.7%; % of viability ([7]; log c -6): 92.0 ± 3.7%; % of viability ([7]; log c -7): 95.0 ± 4.0%; % of viability ([7]; log c -8): 95.0 ± 4.0%; % of viability ([7]; log c -9): 98.2 ± 2.6% |
| C[C@]12CC[C@@H]3c4ccc(O)cc4CC[C@H]3[C@@H]1CC[C@@H]2O [17β-estradiole, estradiol] | 100% | 107 ± 4.3% | 110 ± 3.2% | 110 ± 6.2% | 110 ± 6.2% | 116 ± 16.4% | – |
| C[C@]12CCC(=O)C=C1CC[C@@H]1[C@@H]2[C@@H](O)C[C@]2(C=O)[C@@H](C(=O)CO)CC[C@@H]12 [Aldosterone, aldosterone] | – | – | – | – | – | – | Literature Log EC50 [1]: > -5.00; effect on luciferase activity in agonist mode [2]: did not significantly increased luciferase activity; Log EC50 ([2]; Clone 8, 24 h): -6.03 ± 0.04; Log EC50 ([2]; Clone 14, 24 h): -6.11 ± 0.02; viability at 24 h, 10 μM [3, 8]: 97 ± 5.4%; viability at 24 h, 1 μM [3, 9]: 98.6 ± 0.8%; viability at 24 h, 100 nM [3, 10]: 99 ± 1.4%; viability at 24 h, 10 nM [3, 11]: 99.4 ± 1%; viability at 24 h, 1 nM [3, 12]: 110 ± 1.4%; viability at 24 h, 0.1 nM [3, 13]: 100%; Literature Log EC50 [5]: > -5.00 |
| C[C@H]1C[C@H]2[C@@H]3CCC4=CC(=O)C=C[C@]4(C)[C@@]3(Cl)[C@@H](O)C[C@]2(C)[C@@]1(O)C(=O)CO [Beclomethasone, beclomethasone] | – | – | – | – | – | – | % of viability ([7]; log c -5): 92.3 ± 2.1%; % of viability ([7]; log c -6): 98.4 ± 0.9%; % of viability ([7]; log c -7): 109.2 ± 5.7%; % of viability ([7]; log c -8): 106.5 ± 6.1%; % of viability ([7]; log c -9): 99.9 ± 3.9% |
| C[C@H]1C[C@H]2[C@@H]3CCC4=CC(=O)C=C[C@]4(C)[C@@]3(F)[C@@H](O)C[C@]2(C)[C@@]1(O)C(=O)CO [Betamethasone, betamethasone] | 100% | 105 ± 4% | 110 ± 7.3% | 109 ± 7.9% | 108 ± 14.6% | 101 ± 9.9% | – |
| C[C@]12C[C@H](O)[C@H]3[C@@H](CCC4=CC(=O)CC[C@@]43C)[C@@H]1CC[C@@H]2C(=O)CO [Corticosterone, corticosterone] | 100% | 104% | 107 ± 2.5% | 111 ± 5.7% | 109 ± 6.5% | 105 ± 3.4% | – |
| C[C@]12CCC(=O)C=C1CC[C@@H]1[C@@H]2[C@@H](O)C[C@@]2(C)[C@H]1CC[C@]2(O)C(=O)CO [Cortisol, cortisol] | – | – | – | – | – | – | Literature Log EC50 [1]: > -5.00; potency weaker as compared to androgens [2]: 2–3 orders of magnitude; effect on luciferase activity in agonist mode [2]: induced luciferase activity; Log EC50 ([2]; Clone 8, 24 h): -6.35 ± 0.11; Log EC50 ([2]; Clone 14, 24 h): -6.49 ± 0.04; viability at 24 h, 10 μM [3, 8]: 105 ± 10.4%; viability at 24 h, 1 μM [3, 9]: 107 ± 12.3%; viability at 24 h, 100 nM [3, 10]: 107 ± 13.2%; viability at 24 h, 10 nM [3, 11]: 106 ± 9.1%; viability at 24 h, 1 nM [3, 12]: 109 ± 4.1%; viability at 24 h, 0.1 nM [3, 13]: 100%; Literature Log EC50 [5]: -8.22 |
| CC(=O)O[C@]1(C(C)=O)CC[C@H]2[C@@H]3C=C(Cl)C4=CC(=O)[C@@H]5C[C@@H]5[C@]4(C)[C@H]3CC[C@@]21C [Cyproterone acetate, cyproterone acetate] | 100% | 105 ± 1.7% | 105 ± 2% | 106 ± 5.7% | 99.4 ± 7.8% | 89.5 ± 6.6% | – |
| C#C[C@]1(O)CC[C@H]2[C@@H]3CCC4=Cc5oncc5C[C@]4(C)[C@H]3CC[C@@]21C [Danazol] | 100% | 106 ± 1.5% | 108 ± 6.9% | 109 ± 10.6% | 108 ± 11.6% | 114 ± 12.1% | – |
| C[C@@H]1C[C@H]2[C@@H]3CCC4=CC(=O)C=C[C@]4(C)[C@@]3(F)[C@@H](O)C[C@]2(C)[C@@]1(O)C(=O)CO [Dexamethasone, dexamethasone] | 100% | 99.8 ± 3.9% | 114 ± 2% | 112.7 ± 1.1% | 111 ± 3.4% | 108 ± 2.6% | – |
| CC/C(=C(/CC)c1ccc(O)cc1)c1ccc(O)cc1 [Diethylstilbestrol, diethylstilbestrol] | 100% | 101 ± 5.1% | 102 ± 7.6% | 102 ± 5.1% | 98 ± 4.3% | 99.9 ± 7% | – |
| C[C@H]1C[C@@H]2[C@H]([C@@H](O)C[C@@]3(C)[C@H]2CC[C@]3(O)C(=O)CO)[C@@]2(C)C=CC(=O)C=C12 [Methyl-prednisolone, methylprednisolone] | 100% | 107 ± 3.1% | 111 ± 9.4% | 105 ± 8.9% | 105 ± 14.3% | 105 ± 16% | Log EC50 ([2]; Clone 8, 24 h): -7.60 ± 0.43; Log EC50 ([2]; Clone 14, 24 h): -7.48 ± 0.30; Literature Log EC50 [5]: -8.75 |
| CC#C[C@]1(O)CC[C@H]2[C@@H]3CCC4=CC(=O)CCC4=C3[C@@H](c3ccc(N(C)C)cc3)C[C@@]21C [Mifepristone, mifepristone] | 100% | 104 ± 2.8% | 102 ± 9.7% | 104 ± 18.2% | 94.7 ± 9.5% | 41.7 ± 1.1% | – |
| C[C@]12C=CC(=O)C=C1CC[C@@H]1[C@@H]2[C@@H](O)C[C@@]2(C)[C@H]1CC[C@]2(O)C(=O)CO [Prednisolone, prednisolone] | 100% | 100.7 ± 0.8% | 104 ± 3.7% | 107 ± 5.2% | 104 ± 5.2% | 101 ± 8.3% | – |
| CC(=O)[C@H]1CC[C@H]2[C@@H]3CCC4=CC(=O)CC[C@]4(C)[C@H]3CC[C@]12C [Progesterone, progesterone] | 100% | 98.7 ± 7.3% | 98.7 ± 12.2% | 99.8 ± 14.1% | 98.1 ± 13.9% | 91 ± 9.5% | – |
| O=C(c1ccc(OCCN2CCCCC2)cc1)c1c(-c2ccc(O)cc2)sc2cc(O)ccc12 [Raloxifene hydrochloride, raloxifene hydrochloride] | 100% | 103 ± 8.5% | 99.8 ± 4.3% | 106 ± 6.8% | 95.9 ± 10.3% | 7.1 ± 0.2% | – |
| CC(=O)S[C@@H]1CC2=CC(=O)CC[C@]2(C)[C@H]2CC[C@@]3(C)[C@@H](CC[C@@]34CCC(=O)O4)[C@H]12 [Spironolactone, spironolactone] | 100% | 108 ± 1.5% | 112 ± 5.7% | 113 ± 10% | 98.9 ± 5.5% | 58.9 ± 2.5% | – |
| CC/C(=C(\c1ccccc1)c1ccc(OCCN(C)C)cc1)c1ccccc1 [Tamoxifen citrate, tamoxifen citrate salt] | 100% | 103 ± 4.3% | 107 ± 4.6% | 106 ± 3.8% | 88.5 ± 2.4% | 1.7 ± 0.8% | – |
| C[C@]12CC[C@H]3[C@@H](CCC4=CC(=O)CC[C@@]43C)[C@@H]1CC[C@@H]2O [Testosterone, testosterone] | – | – | – | – | – | – | viability at 24 h, 10 μM [3, 8]: 105.3 ± 1%; viability at 24 h, 1 μM [3, 9]: 105 ± 6.9%; viability at 24 h, 100 nM [3, 10]: 103 ± 5.6%; viability at 24 h, 10 nM [3, 11]: 108 ± 4.8%; viability at 24 h, 1 nM [3, 12]: 108.6 ± 1%; viability at 24 h, 0.1 nM [3, 13]: 100% |
| C[C@]12C=CC(=O)C=C1CC[C@H]1[C@@H]3C[C@@H](O)[C@](O)(C(=O)CO)[C@@]3(C)C[C@H](O)[C@@]12F [Triamcinolone, triamcinolone] | 100% | 101 ± 4.2% | 100 ± 8.2% | 105 ± 11.4% | 103 ± 11% | 101 ± 5.4% | – |
